Results from patent publication US9487470B2, “4-((substituted phenyl) difluoromethyl) phenoxy carboxylic acid derivative, and preparation method and uses thereof” (Zhejiang Hisun Pharmaceutical Co., Ltd., priority 2012, dated 2016).

Legend:
[1] = system: hyperlipoidemia model of Goldenhamsters (blood plasma TC, TG, HDL-C, LDL-C); test: Pharmacological test group 1: effects on blood lipid levels of Goldenhamsters in a hyperlipoidemia model; assay type: in vivo; details: for regulating effects on the levels of blood lipid (conclusion from table 2) / effect on TC, in comparison with the results before administration (in words) / therapeutic effect compared with fenofibrate (conclusion from table 2) / effect on HDL-C, in comparison with the results before administration (in words) / effect on TG, in comparison with the results before administration (in words): 40 mg/kg; for HDL-C, after administration / LDL-C, after administration / TC, after administration / TG, after administration: 40 mg/kg intragastric, 1 week, high-lipid feed continued, blood plasma, x±s, asterisks = P vs before administration; for effect on TC, in comparison with the results before administration (in words) / effect on HDL-C, in comparison with the results before administration (in words) / effect on TG, in comparison with the results before administration (in words): t test after vs before administration; for therapeutic effect compared with fenofibrate (conclusion from table 2): fenofibrate 40 mg/kg
Text: Animals: 134 male Goldenhamsters, aged 8 weeks, body weight 80-100 g, provided by Vital River Laboratories, Beijing. […] Kits: The kits for total cholesterol (TC), triglyceride (TG), and high density lipoprotein cholesterol (HDL-C) were provided by SYSMEX, and the kits for low density lipoprotein cholesterol (LDL-C) were provided by Shanghai Kehua Bio-engineering Co., Ltd. Apparatus: SYSMEX Automatic Biochemistry Analyzer, Bechman centrifuge, Setoris balance. The animals were acclimatized and fed for 1 week, ad lib, light cycle was 10 h/14 h, and then feeds with high lipid content were fed to the animals (formulation: 0.3% cholesterol, 20% palm oil, and 79.7% basic feeds). The animals were fed for 10 days, and were fasted at 4:00 pm on the 10th day (fasted for 16 h). On the 11th day, the animals were anaesthetized with ethyl ether, weighted, and then 0.5 ml blood was collected from vena orbitalis posterior. The blood was anticoagulated with heparin, and was centrifugated at 5000 rpm for 10 min. The blood plasma was taken, and the levels of TC, TG, HDL-C, and LDL-C in blood plasma were determined using automatic biochemistry analyzer. The animals were acclimatized and fed for 1 week, ad lib, light cycle was 10 h/14 h, and then feeds with high lipid content were fed to the animals (formulation: 0.3% cholesterol, 20% palm oil, and 79.7% basic feeds). The animals were fed for 2 weeks, and were fasted at 4:00 pm on the […] (fasted for 16 h). On the 22nd day, the animals were anaesthetized with ethyl ether, weighted, and then 0.5 ml blood was collected from vena orbitalis posterior. The blood was anticoagulated with heparin, and was centrifugated at 5000 rpm for 10 min. The blood plasma was taken, and the levels of TC, TG, HDL-C, and LDL-C in blood plasma were determined using automatic biochemistry analyzer. […] During the administration, feeds with high lipid content were continuously fed to the animals. The animals were fed for 1 week, and were fasted at 4:00 pm on the 7th day. On the 8th day, the animals were anaesthetized with ethyl ether, weighted, and then 0.5 ml blood was collected from vena orbitalis posterior. The blood was anticoagulated with heparin, and was centrifugated at 5000 rpm for 10 min. The blood plasma was taken, and the levels of TC, TG, HDL-C, and LDL-C in blood plasma were determined using automatic biochemistry analyzer. The results were represented by x±s, and t test was employed for comparing the results obtained before and after administration.

[2] = Solubility in water (remark on the test drugs); assay type: physicochemical; details: formulated with 20% solutol
[3] = system: hyperlipoidemia model of Goldenhamsters (blood plasma TC, HDL-C, LDL-C); test: Pharmacological test group 2: effects on blood lipid levels of Goldenhamsters in hyperlipoidemia model; assay type: in vivo; details: for HDL-C, after administration / LDL-C, after administration / TC, after administration: 40 mg/kg intragastric, 1 week, high-lipid feed continued, asterisks = P vs before administration; for HDL-C, after administration / LDL-C, after administration / TC, after administration / HDL-C, before administration / LDL-C, before administration / TC, before administration: blood plasma, x±s; for HDL-C, before administration / LDL-C, before administration / TC, before administration: baseline of the group before administration, high-lipid feed 2 weeks, 6 animals
Text: Animals: 120 male Goldenhamsters, aged 8 weeks, body weight 80-100 g, provided by Vital River Laboratories, Beijing.
Kits: The kits for total cholesterol (TC) and high density lipoprotein cholesterol (HDL-C) were provided by SYSMEX, and the kits for low density lipoprotein cholesterol (LDL-C) were provided by Shanghai Kehua Bio-engineering Co., Ltd.
Apparatus: SYSMEX Automatic Biochemistry Analyzer, Bechman centrifuge, Setoris balance.
The animals were acclimatized and fed for 1 week, ad lib, light cycle was 10 h/14 h, and then feeds with high lipid content were fed to the animals (formulation: 0.3% cholesterol, 20% palm oil, and 79.7% basic feeds). The animals were fed for 2 weeks, and were fasted at 4:00 pm on the 14th day (fasted for 16 h). On the 15th day, the animals were anaesthetized with ethyl ether, weighted, and then 0.5 ml blood was collected from vena orbitalis posterior. The blood was anticoagulated with heparin, and was centrifugated at 5000 rpm for 10 min. The blood plasma was taken, and the levels of TC, HDL-C, and LDL-C in blood plasma were determined using automatic biochemistry analyzer.
During the administration, feeds with high lipid content were continuously fed to the animals. The animals were fed for 1 week, and were fasted at 4:00 pm on the 7th day. On the 8th day, the animals were anaesthetized with ethyl ether, weighted, and then 0.5 ml blood was collected from vena orbitalis posterior. The blood was anticoagulated with heparin, and was centrifugated at 5000 rpm for 10 min. The blood plasma was taken, and the levels of TC, HDL-C, and LDL-C in blood plasma were determined using automatic biochemistry analyzer.
The results were represented by x±s, and t test was employed for comparing the results obtained before and after administration.

[4] = 40 mg/kg, t test after vs before administration

Row | Structure (SMILES) | regulating effects on the levels of blood lipid (conclusion from table 2) [1] | HDL-C, after administration [1] | LDL-C, after administration [1] | TC, after administration [1] | TG, after administration [1] | effect on TC, in comparison with the results before administration (in words) [1] | solubility in water [2] | effect on TG, in comparison with the results before administration (in words) [1] | also measured
1 | CC(C)OC(=O)C(C)(C)Oc1ccc(C(F)(F)c2ccc(C(F)(F)F)cc2)cc1 [HS003-007, Isopropyl 2-(4-((4-trifluoromethylphenyl)difluoromethyl)phenoxy)-2-methylpropionate] | tend to the effects of significantly decreasing TG, TC, and LDL-C | 2.99 ± 0.13 | 1.26 ± 0.22 | 7.42 ± 0.71 | 2.12 ± 0.43 | significantly decreases | – | – | –
2 | Cc1cccc(C(F)(F)c2ccc(OC(C)(C)C(=O)OC(C)C)cc2)c1 [HS003-012, Isopropyl 2-(4-((3-methylphenyl)difluoromethyl)phenoxy)-2-methylpropionate] | – | – | – | – | – | – | insoluble | – | –
3 | CC(C)OC(=O)C(C)(C)Oc1ccc(C(F)(F)c2cccc(C(F)(F)F)c2)cc1 [HS003-013, Isopropyl 2-(4-((3-trifluoromethylphenyl)difluoromethyl)phenoxy)-2-methylpropionate] | tend to the effects of significantly decreasing TG, TC, and LDL-C | 3.12 ± 0.25 | 1.46 ± 0.46 | 8.93 ± 0.53 | 1.84 ± 0.45 | significantly decreases | – | – | –
4 | CCOC(=O)CCCOc1ccc(C(F)(F)c2ccc(Cl)cc2)cc1 [HS003-026, Ethyl 4-(4-((4-chlorophenyl)difluoromethyl)phenoxy)butyrate] | tend to the effect of significantly decreasing TG and increasing HDL-C | 4.13 ± 0.32 | 1.69 ± 0.47 | 11.18 ± 1.6 | 0.82 ± 0.24 | – | – | significantly decreases | therapeutic effect compared with fenofibrate (conclusion from table 2) [1]: outstanding therapeutic effects on decreasing TG, and are significantly superior to fenofibrate; effect on HDL-C, in comparison with the results before administration (in words) [1]: significantly increases
5 | CC(C)OC(=O)C(C)(C)Oc1ccc(C(F)(F)c2ccccc2C(F)(F)F)cc1 [HS003-016, Isopropyl 2-(4-((2-trifluoromethylphenyl)difluoromethyl)phenoxy)-2-methylpropionate] | tend to the effects of significantly decreasing TG, TC, and LDL-C | 3.40 ± 0.32 | 1.0 ± 0.23 | 8.44 ± 1.12 | 1.23 ± 0.42 | significantly decreases | – | – | –
6 | CC(C)OC(=O)C(C)(C)Oc1ccc(C(F)(F)c2ccc(F)cc2)cc1 [HS003-006, Isopropyl 2-(4-((4-fluorophenyl)difluoromethyl)phenoxy)-2-methylpropionate] | tend to the effects of significantly decreasing TG, TC, and LDL-C | 3.64 ± 0.31 | 1.02 ± 0.27 | 8.96 ± 0.77 | 1.06 ± 0.29 | significantly decreases | – | significantly decreases | effect on HDL-C, in comparison with the results before administration (in words) [1]: increases
7 | O=C(COc1ccc(C(F)(F)c2ccc(Cl)cc2)cc1)OCc1ccccc1 [HS003-021, Benzyl 2-(4-((4-chlorophenyl)difluoromethyl)phenoxy)-acetate] | tend to the effect of significantly decreasing TG and increasing HDL-C | 4.46 ± 0.23 | 2.08 ± 0.89 | 13.37 ± 3.3 | 1.1 ± 0.53 | – | – | significantly decreases | effect on HDL-C, in comparison with the results before administration (in words) [1]: significantly increases
8 | CC(C)OC(=O)C(C)(C)Oc1ccc(C(F)(F)c2cccc(Cl)c2)cc1 [HS003-011, Isopropyl 2-(4-((3-chlorophenyl)difluoromethyl)phenoxy)-2-methylpropionate] | – | – | – | – | – | – | insoluble | – | blood lipid-regulating effects (conclusion from table 3) ([3]; 40 mg/kg): excellent blood lipid-regulating effects; HDL-C, after administration [3]: 1.93 ± 0.91; LDL-C, after administration [3]: 2.21 ± 0.91; TC, after administration [3]: 11.94 ± 2.71; effect on HDL-C, in comparison with the results before administration (in words) [3, 4]: increase; effect on LDL-C, in comparison with the results before administration (in words) [3, 4]: significantly decreases; HDL-C, before administration [3]: 1.46 ± 0.16; LDL-C, before administration [3]: 4.02 ± 1.34; TC, before administration [3]: 13.91 ± 2.34
9 | COC(=O)c1ccc(C(F)(F)c2ccc(OC(C)(C)C(=O)OC(C)C)cc2)cc1 [HS003-017, Isopropyl 2-(4-((4-methoxyacylphenyl)difluoromethyl)phenoxy)-2-methylpropionate] | tend to the effect of significantly decreasing TG and increasing HDL-C | 4.09 ± 0.18 | 1.41 ± 0.34 | 11.61 ± 1.42 | 0.81 ± 0.15 | – | – | significantly decreases | therapeutic effect compared with fenofibrate (conclusion from table 2) [1]: outstanding therapeutic effects on decreasing TG, and are significantly superior to fenofibrate
10 | Cc1ccc(C(F)(F)c2ccc(OC(C)(C)C(=O)OC(C)C)cc2)cc1 [HS003-009, Isopropyl 2-(4-((4-methylphenyl)difluoromethyl)phenoxy)-2-methylpropionate] | – | – | – | – | – | – | insoluble | – | –
11 | Cc1ccccc1C(F)(F)c1ccc(OC(C)(C)C(=O)OC(C)C)cc1 [HS003-015, Isopropyl 2-(4-((2-methylphenyl)difluoromethyl)phenoxy)-2-methylpropionate] | – | – | – | – | – | – | insoluble | – | HDL-C, after administration [3]: 1.77 ± 0.18; LDL-C, after administration [3]: 2.26 ± 1.03; TC, after administration [3]: 15.3 ± 3.74; effect on HDL-C, in comparison with the results before administration (in words) [3, 4]: significantly increases; HDL-C, before administration [3]: 1.54 ± 0.07; LDL-C, before administration [3]: 3.14 ± 1.22; TC, before administration [3]: 13.99 ± 2.3
12 | Cc1cc(OC(C)(C)C(=O)OC(C)C)ccc1C(F)(F)c1ccc(Cl)cc1 [HS003-019, Isopropyl 2-(4-((4-chlorophenyl)difluoromethyl)-3-methylphenoxy)-2-methylpropionate] | – | – | – | – | – | – | insoluble | – | blood lipid-regulating effects (conclusion from table 3) ([3]; 40 mg/kg): excellent blood lipid-regulating effects; HDL-C, after administration [3]: 1.84 ± 0.21; LDL-C, after administration [3]: 1.83 ± 0.56; TC, after administration [3]: 10.62 ± 1.02; therapeutic effect compared with fenofibrate (conclusion from table 3) ([3]; 40 mg/kg, fenofibrate 40 mg/kg): outstanding therapeutic effects, and are superior to fenofibrate; effect on LDL-C, in comparison with the results before administration (in words) [3, 4]: significantly decreases; effect on TC, in comparison with the results before administration (in words) [3, 4]: significantly decreases; HDL-C, before administration [3]: 1.67 ± 0.22; LDL-C, before administration [3]: 3.12 ± 1.47; TC, before administration [3]: 13.99 ± 2.28
